Source: PubChem BioAssay AID1963852 (Molecular Pharmacology Branch, DTP, NCI, 2024)
Several values for one entry are separate records, joined by “and”; a condition that tells them apart may be missing. Equal entries are not always repeated.

Tested on: 282377-053-R-J1-PDC complex spheroid viability
Experiment: Anticancer human tumor 282377-053-R-J1-PDC patient-derived colon adenocarcinoma cell line growth inhibition [POLQ]
Details: for viability, T/C: stronger effect = lower value; active = viability on the fitted dose curve at most 10% of control; inactive = the rest
Description: Multicellular complex tumor spheroid response to Polymerase (POL) inhibitors (novobiocin, ART-558, RP6685) in combination with a variety of drugs and investigational agents in selected tumor cell lines
The POL inhibitors (novobiocin, ART-558, and RP6685) were evaluated both individually and in combination with standard of care and investigational anticancer small molecules within a complex spheroid model of solid tumors. . Complex spheroids include a stromal component modeled by human endothelial cells (HUVEC) and fibroblasts modeled by human mesenchymal stem cells (MSCs). The concentration ranges selected for each drug and investigational agent were based upon clinically achievable concentrations if the clinical Cmax of the agent was known.
Compounds. The drugs and investigational agents: novobiocin (NSC847541), ART-558 (NSC835418), RP-6685 (NSC848927), peposertib (NSC802822), ceralasertib (NSC780249), elimusertib (NSC800525), camonsertib (NSC841442), AZD-1390 (NSC803789), olaparib (NSC753686), talazoparib (NSC767125), rucaparib (NSC756644), sotorasib (NSC818433), MRTX-1133 (NSC836407), SN-38 (NSC673596), topotecan (NSC609699), epotoside (NSC141540), doxorubicin (NSC123127), gemcitabine (NSC613327), 5-fluorouracil (NSC19893), paclitaxel (NSC125973), vemurafenib (NSC761431), MSA-2 (NSC828583), SN-011 (NSC837082), adavosertib (NSC754352), prexasertib (NSC758257), carboplatin (NSC241240) and oxaliplatin (NSC266046), were obtained from the National Cancer Institute (NCI) Developmental Therapeutics Program Chemical Repository (21). The FDA-approved anticancer drug set is available from the Developmental Therapeutics Program at https://dtp.cancer.gov/organization/dscb/obtaining/. […] The stock solutions were prepared in dimethyl sulfoxide (DMSO, Sigma-Aldrich, St. Louis, MO, cat. D2650), except for the platinum compounds which were prepared in saline (Quality Biological, Gaithersburg, MD, cat. 114-055-101), at 800-fold the tested concentration and stored at -70 degrees C prior to their use. All drugs and investigational agents were tested over a range starting from a high concentration at or near the clinical Cmax and decreasing in half-log increments. If the clinical Cmax for an agent had not been determined, the highest concentration tested was 10 microM, except for SN-38, which was tested at a high concentration of 1 microM.
Cell Culture. All cells were maintained in an incubator at 37 degrees C and 5% CO2 with 95% humidity. The PDC lines were cultured according to standard operating procedures established by the NCI PDMR (https://pdmr.cancer.gov). Table 3 of the manuscript, lists the cell lines along with the number of the three cell types plated to form the mct-spheroids and media for tumor cell growth. After thawing, all PDC lines, except 997537-175-T-J1-PDC and 415267-285-R-J2-PDC, were cultured in Matrigel-coated flasks prepared with a working solution of 1X Ham's F-12 nutrient mix, without supplementation (Thermo Fisher Scientific, cat. 11765054), 100 U/mL penicillin-streptomycin (Thermo Fisher Scientific, cat. 15140122), and 2.5% Matrigel (Corning Inc., Corning, NY, cat. 354248) for the first three passages. The two PDC lines 997537-175-T-J1-PDC and 415267-285-R-J2-PDC were cultured on uncoated flasks. The 857933-349-R-J2-PDC line was cultured in 6C/Colon 1B media containing advanced DMEM/F-12 (Thermo Fisher Scientific, cat. 12634028), 10 mM HEPES (Thermo Fisher Scientific, cat. 15630080), 1X GlutaMAX supplement (Thermo Fisher Scientific, cat. 35050061), 0.1 mg/mL primocin (InvivoGen, San Diego, CA, cat. ant-pm-2), 10% defined fetal bovine serum, heat inactivated (HyClone Laboratories Inc., Logan, UT, cat. SH30070.03HI), 50% L-WRN conditioned media (ATCC, cat. CRL-3276), 1.25 mM N-Acetyl-L-cysteine (Sigma-Aldrich, cat. A9165), 10 mM nicotinamide (Sigma-Aldrich, cat. N0636), 1X B-27 supplement (Thermo Fisher Scientific, cat. 17504044), 1X N-2 supplement (Thermo Fisher Scientific, cat. […]

[1] = compound alone, run of 10/31/2023
[2] = compound alone, run of 11/06/2023
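Note: spheroids exposed to compounds for seven days.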

CC1COCCN1c1cc(C2(S(C)(=N)=O)CC2)nc(-c2ccnc3[nH]ccc23)n1 (stereo unspecified)
inactive: viability, T/C (compound 0.0316 µM) 93% and 90.1% and 105% | viability, T/C (compound 0.1 µM) 95.7% and 96.4% and 89.9% | viability, T/C (compound 0.316 µM) 86.7% and 94.9% and 95.5% | viability, T/C (compound 1 µM) 75.4% and 89.4% and 93.3% | viability, T/C (compound 3.16 µM) 57.4% and 74.8% and 62% | viability, T/C (compound 10 µM) 46.7% and 55.4% and 47%
7.04 µM and > 10 µM and 7.94 µM: IC50 (curve of compound)

COc1ccc([C@@H](O)c2cc(-c3ncnc4cc(N5CCOCC5)ccc34)c(F)cc2Cl)nn1
> 10 µM: IC50 (curve of compound)
inactive: viability, T/C (compound 0.0316 µM) 95.7% and 94.3% and 98.1% | viability, T/C (compound 0.1 µM) 92.2% and 99.3% and 91.8% | viability, T/C (compound 0.316 µM) 112% and 94.1% and 106% | viability, T/C (compound 1 µM) 88.9% and 98.7% and 102% | viability, T/C (compound 3.16 µM) 82.5% and 101% and 87.2% | viability, T/C (compound 10 µM) 71.8% and 84.8% and 82.2%

Cc1cccc(N(C)C(=O)C2C(O)CCN2c2nc(C)cc(C(F)(F)F)c2C#N)c1 (stereo unspecified)
inactive: viability, T/C (compound 0.1 µM) 105% [middle of 13 runs]
> 10 µM: IC50 [1] | IC50 [2]

COc1cccc(OCCCN)c1-c1cc(Nc2cnc(C#N)cn2)n[nH]1
0.112 µM and 0.731 µM and 0.534 µM: IC50 (curve of compound)
inactive: viability, T/C (compound 0.00316 µM) 107% and 99.4% and 101% | viability, T/C (compound 0.01 µM) 94.1% and 89.1% and 85.9% | viability, T/C (compound 0.0316 µM) 76.9% and 82.1% and 72.1% | viability, T/C (compound 0.1 µM) 49.5% and 74.7% and 75.6% | viability, T/C (compound 0.316 µM) 37.2% and 63.1% and 52.5% | viability, T/C (compound 1 µM) 26.8% and 44% and 43.3%

COC1C(OC(N)=O)C(O)C(Oc2ccc3c(O)c(NC(=O)c4ccc(O)c(CC=C(C)C)c4)c(=O)oc3c2C)OC1(C)C (stereo unspecified)
> 10 µM: IC50 [1]
inactive: viability, T/C (compound 0.0316 µM) 94.6% [middle of 13 runs] | viability, T/C (compound 0.316 µM) 105% [middle of 13 runs] | viability, T/C (compound 1 µM) 101% [middle of 13 runs] | viability, T/C (compound 3.16 µM) 101% [middle of 13 runs] | viability, T/C (compound 10 µM) 101% [middle of 13 runs]

Nc1ccc(C#CCN(C(=O)Cc2ncc(C(F)(F)F)cc2C(F)(F)F)c2ccc(F)cc2)nn1
inactive: viability, T/C (compound 0.0316 µM) 92.4% [middle of 13 runs] | viability, T/C (compound 1 µM) 99.5% [middle of 12 runs] | viability, T/C (compound 3.16 µM) 102% [middle of 13 runs] | viability, T/C (compound 10 µM) 114% [middle of 13 runs]
> 10 µM: IC50 [2]

COc1cccc2c1C(=O)c1c(O)c3c(c(O)c1C2=O)CC(O)(C(=O)CO)CC3OC1CC(N)C(O)C(C)O1 (stereo unspecified) + Cc1cccc(N(C)C(=O)C2C(O)CCN2c2nc(C)cc(C(F)(F)F)c2C#N)c1
0.35 µM: IC50 (curve of first compound, second compound 10 µM)
0.487 µM: IC50 (curve of first compound, second compound 3.16 µM)
0.375 µM: IC50 (curve of first compound, second compound 1 µM)
0.476 µM: IC50 (curve of first compound, second compound 0.0316 µM)
0.458 µM: IC50 (curve of first compound, second compound 0.316 µM)
active: viability, T/C (second compound 0.0316 µM, first compound 3.16 µM) 1.27% | viability, T/C (second compound 0.0316 µM, first compound 10 µM) 3.44% | viability, T/C (second compound 0.1 µM, first compound 3.16 µM) 1.4% | viability, T/C (second compound 0.1 µM, first compound 10 µM) 2.79% | viability, T/C (second compound 0.316 µM, first compound 3.16 µM) 0.98% | viability, T/C (second compound 0.316 µM, first compound 10 µM) 3.12% | viability, T/C (second compound 1 µM, first compound 3.16 µM) 2.19% | viability, T/C (second compound 1 µM, first compound 10 µM) 2.83% | viability, T/C (second compound 3.16 µM, first compound 3.16 µM) 1% | viability, T/C (second compound 3.16 µM, first compound 10 µM) 2.98% | viability, T/C (second compound 10 µM, first compound 1 µM) 9.01% | viability, T/C (second compound 10 µM, first compound 3.16 µM) 0.71% | viability, T/C (second compound 10 µM, first compound 10 µM) 2.73%
inactive: viability, T/C (second compound 0.0316 µM, first compound 0.0316 µM) 130% | viability, T/C (second compound 0.0316 µM, first compound 0.1 µM) 105% | viability, T/C (second compound 0.0316 µM, first compound 0.316 µM) 63.7% | viability, T/C (second compound 0.0316 µM, first compound 1 µM) 27.6% | viability, T/C (second compound 0.1 µM, first compound 0.0316 µM) 108% | viability, T/C (second compound 0.1 µM, first compound 0.1 µM) 98.5% | viability, T/C (second compound 0.1 µM, first compound 0.316 µM) 79.6% | viability, T/C (second compound 0.1 µM, first compound 1 µM) 20.7% | viability, T/C (second compound 0.316 µM, first compound 0.0316 µM) 104% | viability, T/C (second compound 0.316 µM, first compound 0.1 µM) 100% | viability, T/C (second compound 0.316 µM, first compound 0.316 µM) 66.1% | viability, T/C (second compound 0.316 µM, first compound 1 µM) 16.1% | viability, T/C (second compound 1 µM, first compound 0.0316 µM) 113% | viability, T/C (second compound 1 µM, first compound 0.1 µM) 101% | viability, T/C (second compound 1 µM, first compound 0.316 µM) 47% | viability, T/C (second compound 1 µM, first compound 1 µM) 29.9% | viability, T/C (second compound 3.16 µM, first compound 0.0316 µM) 115% | viability, T/C (second compound 3.16 µM, first compound 0.1 µM) 91.7% | viability, T/C (second compound 3.16 µM, first compound 0.316 µM) 73.3% | viability, T/C (second compound 3.16 µM, first compound 1 µM) 15.2% | viability, T/C (second compound 10 µM, first compound 0.0316 µM) 95% | viability, T/C (second compound 10 µM, first compound 0.1 µM) 89.8% | viability, T/C (second compound 10 µM, first compound 0.316 µM) 54%
0.561 µM: IC50 (curve of first compound, second compound 0.1 µM)

CC(C)n1c(=O)n(C)c2cnc3cc(F)c(-c4ccc(OCCCN5CCCCC5)nc4)cc3c21
inactive: viability, T/C (compound 0.0316 µM) 103% and 107% and 118% | viability, T/C (compound 0.1 µM) 133% and 106% and 113% | viability, T/C (compound 0.316 µM) 104% and 103% and 109% | viability, T/C (compound 1 µM) 103% and 118% and 107% | viability, T/C (compound 3.16 µM) 104% and 114% and 103% | viability, T/C (compound 10 µM) 104% and 108% and 105%
> 10 µM: IC50 (curve of compound)

O=C(Nc1ccc(O)c(NS(=O)(=O)c2ccc(F)cc2)c1)c1ccc(-c2ccccc2)cc1
> 10 µM: IC50 (curve of compound)
inactive: viability, T/C (compound 0.0316 µM) 110% and 91.2% and 91.8% | viability, T/C (compound 0.1 µM) 98.8% and 86.6% and 102% | viability, T/C (compound 0.316 µM) 108% and 92.9% and 112% | viability, T/C (compound 1 µM) 113% and 95.5% and 102% | viability, T/C (compound 3.16 µM) 116% and 112% and 121% | viability, T/C (compound 10 µM) 116% (2×) and 109%
